Data as given in patent EP4711369A1, “1H-[1,2,3]TRIAZOLO[4,5-H]QUINAZOLINE COMPOUNDS AS PROTEIN KINASE INHIBITORS” (Chengdu Cynogen Bio-Pharmaceutical Technology Co., Ltd., priority 2023, dated 2024).

Experiments:
[1] = tested on: Human ovarian cancer OVCAR3 cells; experiment: Assay of cell proliferation (CellTiter-Glo); type: cell-based; settings: Homo sapiens, OVCAR-3, 144 h, 6 days, read-out: OVCAR3 IC50 of cell proliferation inhibitory activity
Protocol: (§1) Human ovarian cancer OVCAR3 cells were inoculated at 2000 cells/well in a 96-well plate and cultured in RPMI 1640 medium containing 20% FBS at 37 °C and 5% CO2 overnight in an incubator. The next day, the compounds were subjected to a three-fold gradient dilution in DMSO from a peak concentration of 2 mM to give nine concentrations. Then, the compounds were diluted 3:200 in growth medium, and finally diluted 1:3 in the cell culture supernatant to give a culture supernatant containing 0.5% DMSO, with the compounds treatment concentrations ranging from 10 µM to 0.1 nM. The cells and the compounds were incubated at 37 °C and 5% CO2 for 6 days. Then, cell proliferation assay was performed using the CellTiter-Glo (manufacturer: Promega, Cat. No. G9242), and luminescence signals were read using a multifunctional microplate reader (model: Synergy H1, manufacturer: BiotTek). IC50 values were calculated by fitting of the concentration-response curves with a four-parameter analysis method using GraphPad Prism software.

CDK6/cyclin D3 = CDK6/cyclin D3 (Homo sapiens, UniProt Q00534); experiment: Assay of kinase activity (ADP-Glo); type: biochemical; settings: kinase inhibitory activity
Protocol: (§2) CDK/cyclin catalyzes the phosphorylation of a substrate, which concomitantly consumes ATP and produces ADP. The inhibition rate (%) in the presence of a small molecule inhibitor was assessed by measuring the amount of ADP generated in the reaction. The assay compounds were thoroughly mixed by vortexing and then diluted in DMSO to 100× the assay concentration. 40 nL of a compound was transferred to a 384-well assay plate using a nanoliter pipetting system (ECHO® 655 SYSTEM). A 2× kinase solution was prepared using a 1× kinase reaction buffer (50 mM Hepes, 10 mM MgCl2, 0.01% Brij35, 2 mM DTT). 2 µL of the kinase solution was transferred to the 384-well assay plate, and the plate was centrifuged at 1000 rpm for 60 seconds in a microplate centrifuge. The plate was incubated at 25 °C in a biochemical incubator for 10 minutes. A 2x mixture of substrate and ATP was prepared in the kinase reaction buffer. Then, 2 µL of the mixture of substrate and ATP was added to the 384-well assay plate. The plate was centrifuged at 1000 rpm for 60 seconds in a microplate centrifuge, and incubated at 25 °C in a biochemical incubator for 60 minutes. 4 µL of ADP-Glo Reagent (Cat. No. V9103, manufacturer: Promega) incubated at 25 °C in a biochemical incubator was added to each well of the 384-well assay plate. The plate was centrifuged at 1000 rpm for 60 seconds in a microplate centrifuge, and incubated at 25 °C in a biochemical incubator for 40 minutes. 8 µL of Detection Reagent incubated at 25 °C in a biochemical incubator was added to each well of the 384-well assay plate. The plate was centrifuged at 1000 rpm for 60 seconds in a microplate centrifuge, and incubated at 25 °C in a biochemical incubator for 40 minutes. Finally, luminescence signals were read using a multifunctional microplate reader (model: PHERAstar FSX, manufacturer: BMG). IC50 values were calculated by nonlinear fitting of the concentration-response curves using GraphPad Prism software.

CDK9/cyclin T1 = CDK9/cyclin T1 (Homo sapiens, UniProt P50750); experiment: Assay of kinase activity (ADP-Glo); type: biochemical; settings: kinase inhibitory activity
Protocol: as §2

CDK4/cyclin D1 = CDK4/cyclin D1 (Homo sapiens, UniProt P11802); experiment: Assay of kinase activity (ADP-Glo); type: biochemical; settings: kinase inhibitory activity
Protocol: as §2, with “40 nL of a compound was transferred to a 384-well assay plate using a nanoliter pipetting system (ECHO® 655 SYSTEM).” left out

CDK2/cyclin E = CDK2/cyclin E (Homo sapiens, UniProt P24941); experiment: Assay of kinase activity (ADP-Glo); type: biochemical; settings: kinase inhibitory activity, read-out: CDK2/E1 IC50
Protocol: as §2, with “40 nL of a compound was transferred to a 384-well assay plate using a nanoliter pipetting system (ECHO® 655 SYSTEM).” left out

[2] = tested on: human breast cancer HCC1806 cells; experiment: Assay of cell proliferation (CellTiter-Glo); type: cell-based; settings: Homo sapiens, 144 h, 6 days, read-out: HCC1806 IC50 of cell proliferation inhibitory activity
Protocol: as §1
(§3) The cell proliferation assays of human colon cancer HCT-116 cells, human breast cancer MCF-7 cells, human breast cancer HCC1806 cells, human acute myeloid leukemia MV-4-11 cells, and human gastric cancer MKN1 cells were performed according to the same method, with different inoculation densities set according to different cell growth characteristics.

[3] = tested on: human gastric cancer MKN1 cells; experiment: Assay of cell proliferation (CellTiter-Glo); type: cell-based; settings: Homo sapiens, MKN-1, 144 h; MNK1, 6 days; read-out: MKN1 IC50 of cell proliferation inhibitory activity
Protocol: as §1, §3

Chain of CDK6/cyclin D3 (Q00534 whole entry, species assumed): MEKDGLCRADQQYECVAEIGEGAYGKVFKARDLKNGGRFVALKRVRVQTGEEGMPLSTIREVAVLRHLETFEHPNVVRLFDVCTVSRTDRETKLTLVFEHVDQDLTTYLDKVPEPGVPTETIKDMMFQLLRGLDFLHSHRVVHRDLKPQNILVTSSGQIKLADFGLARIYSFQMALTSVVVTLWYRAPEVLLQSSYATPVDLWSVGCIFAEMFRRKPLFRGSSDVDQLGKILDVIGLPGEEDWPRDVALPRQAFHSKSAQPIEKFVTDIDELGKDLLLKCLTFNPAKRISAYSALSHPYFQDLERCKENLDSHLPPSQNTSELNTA
Chain of CDK6/cyclin D3 (P30281 whole entry partner, species assumed): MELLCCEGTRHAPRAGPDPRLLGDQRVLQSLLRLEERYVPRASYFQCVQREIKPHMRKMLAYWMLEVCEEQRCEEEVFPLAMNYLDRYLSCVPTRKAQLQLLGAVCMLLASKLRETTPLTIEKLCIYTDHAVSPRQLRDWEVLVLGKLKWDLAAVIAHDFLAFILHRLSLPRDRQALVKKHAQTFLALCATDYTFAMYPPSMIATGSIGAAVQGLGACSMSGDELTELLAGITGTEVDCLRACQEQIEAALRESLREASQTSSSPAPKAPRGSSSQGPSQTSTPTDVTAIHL
Chain of CDK4/cyclin D1 (P11802 whole entry, species assumed): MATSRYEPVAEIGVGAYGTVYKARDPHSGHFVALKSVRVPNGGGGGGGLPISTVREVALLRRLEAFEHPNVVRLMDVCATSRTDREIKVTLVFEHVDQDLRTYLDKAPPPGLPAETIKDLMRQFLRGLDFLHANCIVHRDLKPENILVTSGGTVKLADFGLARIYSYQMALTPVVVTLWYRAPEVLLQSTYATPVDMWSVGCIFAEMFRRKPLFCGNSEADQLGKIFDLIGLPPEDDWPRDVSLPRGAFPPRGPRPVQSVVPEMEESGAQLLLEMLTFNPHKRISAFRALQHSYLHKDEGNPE
Chain of CDK4/cyclin D1 (P24385 whole entry partner, species assumed): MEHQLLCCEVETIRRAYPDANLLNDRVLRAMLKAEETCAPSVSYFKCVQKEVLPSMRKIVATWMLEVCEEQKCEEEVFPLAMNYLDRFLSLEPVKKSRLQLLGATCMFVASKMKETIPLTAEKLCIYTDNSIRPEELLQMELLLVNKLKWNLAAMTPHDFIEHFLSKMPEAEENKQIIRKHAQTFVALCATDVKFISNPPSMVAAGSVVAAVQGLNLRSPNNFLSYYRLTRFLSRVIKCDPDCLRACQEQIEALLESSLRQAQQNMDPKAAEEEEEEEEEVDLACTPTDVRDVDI
Chain of CDK9/cyclin T1 (P50750 whole entry, species assumed): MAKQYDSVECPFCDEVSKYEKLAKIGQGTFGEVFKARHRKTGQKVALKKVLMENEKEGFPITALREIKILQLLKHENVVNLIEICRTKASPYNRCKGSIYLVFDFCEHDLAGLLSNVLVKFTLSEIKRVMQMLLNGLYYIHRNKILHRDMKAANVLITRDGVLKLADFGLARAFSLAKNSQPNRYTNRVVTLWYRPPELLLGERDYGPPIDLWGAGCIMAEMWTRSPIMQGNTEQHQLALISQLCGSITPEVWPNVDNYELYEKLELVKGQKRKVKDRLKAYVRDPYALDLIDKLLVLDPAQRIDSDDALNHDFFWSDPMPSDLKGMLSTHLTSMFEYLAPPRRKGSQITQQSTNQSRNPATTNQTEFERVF
Chain of CDK9/cyclin T1 (O60563 whole entry partner, species assumed): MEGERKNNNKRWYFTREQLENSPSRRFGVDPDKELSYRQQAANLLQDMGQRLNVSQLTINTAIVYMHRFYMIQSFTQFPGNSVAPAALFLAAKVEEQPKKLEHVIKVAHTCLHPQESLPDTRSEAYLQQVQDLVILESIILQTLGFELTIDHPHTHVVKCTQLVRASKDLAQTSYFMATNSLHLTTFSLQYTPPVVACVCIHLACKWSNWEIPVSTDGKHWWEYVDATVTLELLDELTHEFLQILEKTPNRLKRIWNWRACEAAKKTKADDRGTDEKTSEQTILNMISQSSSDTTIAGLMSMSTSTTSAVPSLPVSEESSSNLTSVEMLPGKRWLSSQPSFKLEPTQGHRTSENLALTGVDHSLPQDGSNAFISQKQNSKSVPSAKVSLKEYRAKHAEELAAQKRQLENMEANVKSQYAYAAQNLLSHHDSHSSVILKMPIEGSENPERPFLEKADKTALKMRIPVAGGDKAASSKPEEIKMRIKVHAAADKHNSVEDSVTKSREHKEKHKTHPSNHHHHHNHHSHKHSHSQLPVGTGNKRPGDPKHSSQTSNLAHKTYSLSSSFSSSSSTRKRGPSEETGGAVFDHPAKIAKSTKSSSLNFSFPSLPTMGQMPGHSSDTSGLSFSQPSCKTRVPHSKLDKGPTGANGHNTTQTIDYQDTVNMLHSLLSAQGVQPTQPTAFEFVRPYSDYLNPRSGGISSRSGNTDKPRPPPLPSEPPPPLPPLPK

IC50 [1] [nM]	IC50 (CDK6/cyclin D3) [nM]	IC50 (CDK9/cyclin T1) [nM]	IC50 (CDK4/cyclin D1) [nM]	IC50 (CDK2/cyclin E) [nM]	IC50 [2] [nM]	IC50 [3] [nM]	Compound
1720	803	995	49	8	3170		CC(C)(O)Cn1nnc2ccc3cnc(Nc4ccc(C(=O)N5CCOCC5)cc4)nc3c21 [Example I-53, (4-((1-(2-Hydroxy-2-methylpropyl)-1H-[1,2,3]triazolo[4,5-H]quinazolin-8-yl)amino)phenyl)(morpholino)methanone]
40	12	6	2	1	207	15	CCN1CCN(C(=O)c2ccc(Nc3ncc4ccc5nnn(C(C)C)c5c4n3)cc2)CC1 [Example I-29, (4-Ethylpiperazin-1-yl)(4-((1-isopropyl-1H-[1,2,3]triazolo[4,5-H]quinazolin-8-yl)amino)phenyl)metha none]
	127	419	10	4	5090		CC(C)(O)Cn1nnc2ccc3cnc(Nc4ccc(C(=O)N5CCNCC5)cc4)nc3c21 [Example I-52, (4-((1-(2-Hydroxy-2-methylpropyl)-1H-[1,2,3]triazolo[4,5-H]quinazolin-8-yl)amino)phenyl)(piperazin-1-yl)methanone]
10	3	2	0.7	0.06	16	5	CN(C)[C@H]1CCN(C(=O)c2ccc(Nc3ncc4ccc5nnn(C6CCCC6)c5c4n3)cc2)C1 [Example I-40, (S)-(4-((1-cyclopentyl-1H-[1,2,3]triazolo[4,5-H]quinazolin-8-yl)amino)phenyl)(3-(dimethylamino)pyrrolidin-1-yl)methanone]
	205	344	7	3	5500		C[C@@H](CO)n1nnc2ccc3cnc(Nc4ccc(C(=O)N5CCNCC5)cc4)nc3c21 [Example I-48, (S)-(4-((1-(1-Hydroxypropan-2-yl)-1H-[1,2,3]triazolo[4,5-H]quinazolin-8-yl)amino)phenyl)(piperazin-1-yl)methanone]
1310	85	100	4	2	1740	548	C[C@H](CO)n1nnc2ccc3cnc(Nc4ccc(C(=O)N5CCNCC5)cc4)nc3c21 [Example I-50, (R)-(4-((1-(1-Hydroxypropan-2-yl)-1H-[1,2,3]triazolo[4,5-H]quinazolin-8-yl)amino)phenyl)(piperazin-1-yl)methanone]
11	5	2	1	0.08	15	4	O=C(c1ccc(Nc2ncc3ccc4nnn(C5CCCC5)c4c3n2)cc1)N1CCCNCC1 [Example I-41, (4-((1-Cyclopentyl-1H-[1,2,3]triazolo[4,5-H]quinazolin-8-yl)amino)phenyl)(1,4-diazepan-1-yl)methanone]
6	4	2	1	0.06	7	3	CN1CCCN(C(=O)c2ccc(Nc3ncc4ccc5nnn(C6CCCC6)c5c4n3)cc2)CC1 [Example I-42, (4-((1-Cyclopentyl-1H-[1,2,3]triazolo[4,5-H]quinazolin-8-yl)amino)phenyl)(4-methyl-1,4-diazepan-1-yl)methanone]
1370	401	390	21	3	2160		C[C@@H](CO)n1nnc2ccc3cnc(Nc4ccc(C(=O)N5CCOCC5)cc4)nc3c21 [Example I-49, (S)-(4-((1-(1-Hydroxypropan-2-yl)-1H-[1,2,3]triazolo[4,5-H]quinazolin-8-yl)amino)phenyl)(morpholino)methanone]
193	89	380	8	7	273	67	CC(C)n1nnc2ccc3cnc(Nc4ccc(C(=O)N5CCN(CCCO)CC5)cc4)nc3c21 [Example I-31, (4-(3-Hydroxypropyl)piperazin-1-yl)(4-((1-isopropyl-1H-[1,2,3]triazolo[4,5-H]quinazolin-8-yl)amino)phenyl)metha none]
275	24	134	3	0.7	317	170	CC(C)n1nnc2c(C(F)F)cc3cnc(Nc4ccc(C(=O)N5CCCNCC5)cc4)nc3c21 [Example I-46]
5	4	2	0.7	0.07	7	1	CN[C@H]1CCN(C(=O)c2ccc(Nc3ncc4ccc5nnn(C6CCCC6)c5c4n3)cc2)C1 [Example I-39, (S)-(4-((1-cyclopentyl-1H-[1,2,3]triazolo[4,5-H]quinazolin-8-yl)amino)phenyl)(3-(methylamino)pyrrolidin-1-yl)methanone]
359	36	144	3	0.8	476	241	CC(C)n1nnc2c(C(F)F)cc3cnc(Nc4ccc(C(=O)N5CC[C@H](N(C)C)C5)cc4)nc3c21 [Example I-45, (S)-(4-((4-(Difluoromethyl)-1-isopropyl-1H-[1,2,3]triazolo[4,5-H]quinazolin-8-yl)amino)phenyl)(3-(dimethylamino)pyrrolidin-1-yl)methanone]
264	94	44	2	1	177		CC(C)n1nnc2ccc3cnc(Nc4ccc(C(=O)N5CCC(N(C)C)CC5)cc4)nc3c21 [Example I-15, (4-(Dimethylamino)piperidin-1-yl)(4-((1-isopropyl-1H-[1,2,3]triazolo[4,5-H]quinazolin-8-yl)amino)phenyl)metha none]
